Calls of active or inactive are those of the source.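 The calls were made as follows: active = mean IC50 for reducing PEG3 promoter reporter signal at or below a set limit, with IC50 above the limit in both counter screens; inactive = the rest, including counter screen hits.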 Some results are limits rather than exact numbers.

The source of these data is PubChem BioAssay AID624167 (Sanford-Burnham Center for Chemical Genomics, 2012).

Assay [1] concerns the target PEG-3 (UniProt Q6IN02). Briefly: inhibition of PEG-3 promoter-driven reporter – cell-based, HeLa, luciferase, CREF/GAPDH counter-screen panel, dose response (AID 624167). The settings on record: HeLa PEG-Prom luciferase reporter, overnight, CREF/GAPDH counter-screens, mean of runs. (In general: Counterscreens check selectivity or assay interference.)
For assay [2], the system named is PEG-3. Described as above. The settings on record: HeLa PEG-Prom luciferase reporter, overnight, CREF/GAPDH counter-screens. (A reporter such as luciferase makes a cellular process visible.)
[3] abbreviates: run 1, dose range 1, individual replicate IC50 per panel.
[4] abbreviates: run 2, dose range 1, individual replicate IC50 per panel.

Sequence of PEG-3 (UniProt Q6IN02) (Q6IN02 whole entry, looked up): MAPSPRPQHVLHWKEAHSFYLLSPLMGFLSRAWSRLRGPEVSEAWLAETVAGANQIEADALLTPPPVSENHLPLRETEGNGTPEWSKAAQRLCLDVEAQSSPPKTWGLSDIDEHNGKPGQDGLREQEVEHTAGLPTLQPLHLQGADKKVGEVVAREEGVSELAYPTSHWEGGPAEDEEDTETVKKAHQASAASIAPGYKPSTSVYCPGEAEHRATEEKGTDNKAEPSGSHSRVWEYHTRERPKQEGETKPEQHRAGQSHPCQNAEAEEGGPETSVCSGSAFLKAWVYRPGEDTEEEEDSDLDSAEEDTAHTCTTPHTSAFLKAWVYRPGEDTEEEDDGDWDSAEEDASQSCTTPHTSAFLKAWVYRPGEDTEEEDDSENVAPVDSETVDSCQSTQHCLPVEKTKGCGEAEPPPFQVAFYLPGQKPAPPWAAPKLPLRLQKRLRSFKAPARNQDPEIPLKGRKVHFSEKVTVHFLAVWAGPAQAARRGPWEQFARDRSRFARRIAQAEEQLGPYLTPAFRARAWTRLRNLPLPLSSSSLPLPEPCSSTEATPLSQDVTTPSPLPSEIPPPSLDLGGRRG

The term IC50 denotes the concentration that inhibits the measured activity by half. As to `CN(CCOc1ccc(Cl)cc1)C(=O)c1cc(-c2ccco2)nc2ccccc12`, the figures for the 50% inhibitory concentration (IC50) on PEG-3 [1], in the assay with PEG-3 [2] (setting [3]) and with PEG-3 [2] (setting [4]) were 15.1 µM, 15.9 µM and 14.4 µM, respectively.
Turning to `CCN1C/C(=C/c2ccc(N3CCOCC3)cc2)C(=O)/C(=C/c2ccc(N3CCOCC3)cc2)C1`, the IC50 was 14.5 µM at PEG-3 [1], 15.9 µM in the assay on PEG-3 [2] (setting [3]) and 13 µM in the assay on PEG-3 [2] (setting [4]).
The corresponding values for `Cc1ccccc1NC(=O)Nc1nc(C(N)C2CCCCC2)cs1` (stereo unspecified) are “inactive”, 21.1 µM and 26.5 µM.
On the same counts, the results for `Cc1ccc2sc(N(CCCN(C)C)C(=O)c3ccc(S(=O)(=O)N(C)Cc4ccccc4)cc3)nc2c1C` are 13.7 µM, 19 µM and 8.42 µM.
For the compound `Cc1ccc(C)c(CN2CCC(CNC(=O)Nc3ccc(F)c(Cl)c3)CC2)c1`, the IC50 is 14.7 µM on PEG-3 [1], 17.3 µM with PEG-3 [2] (setting [3]) and 12 µM in the assay with PEG-3 [2] (setting [4]).
On the same counts, the results for `CCC(C)Sc1ccc(-c2nc3ccccn3c2NCc2ccccc2)cc1OC` (stereo unspecified) are “inactive”, 38.3 µM and 20.2 µM.
On the same counts, the results for `COc1ccc(-c2cc(C(=O)N(C)Cc3ccc(OC)c(OC)c3OC)c3ccccc3n2)cc1OC` are “inactive”, 13.4 µM and 30.9 µM.
The corresponding values for `CC(C(=O)NC1CCCC1)N(C(=O)Cn1nnc(-c2ccc(F)cc2)n1)c1ccccc1F` (stereo unspecified) are “inactive”, 22.9 µM and 69.9 µM.
As for `COc1cccc(C2CC3C(=O)C=CC2N3Cc2ccccc2)c1` (stereo unspecified), the 50% inhibitory concentration (IC50) at PEG-3 [1] is 13 µM; with PEG-3 [2] (setting [3]), 11.9 µM; in the assay on PEG-3 [2] (setting [4]) it was 14.1 µM.
On to `CC(=O)Nc1ccc(S(=O)(=O)N(Cc2ccco2)Cc2cc3ccccc3[nH]c2=O)cc1`, for which the IC50 result on PEG-3 [1] is “inactive”. The IC50 with PEG-3 [2] (setting [3]) is 18.5 µM; in the assay on PEG-3 [2] (setting [4]) it was 22.4 µM.
For `CCN(CC)CCn1c2ccccc2c2cnc(N)c(C#N)c21`, the IC50 on PEG-3 [1] is 12.1 µM; in the assay on PEG-3 [2] (setting [3]), 11.3 µM; in the assay with PEG-3 [2] (setting [4]), 12.9 µM.
Consider `COc1ccc(CC(N)c2csc(NC(=O)Nc3ccccc3C(C)(C)C)n2)cc1` (stereo unspecified), for which the IC50 result at PEG-3 [1] is “inactive”. Besides, the IC50 in the assay on PEG-3 [2] (setting [3]) came to 19.1 µM; in the assay with PEG-3 [2] (setting [4]) it was 31 µM.
On the same counts, the results for `CCOC(=O)/C(=C\c1ccccc1)C(=O)CCN1CCOCC1` are 13.3 µM, 16.6 µM and 9.98 µM.
On to `COc1ccc(NC(=O)Nc2nc(C(N)C3CCCCC3)cs2)cc1` (stereo unspecified), for which the figures for the IC50 at PEG-3 [1], in the assay with PEG-3 [2] (setting [3]) and in the assay with PEG-3 [2] (setting [4]) were 20 µM, 17.9 µM and 22.1 µM, respectively.
As to `Oc1c(Cl)cc(Cl)c2cccnc12`, the 50% inhibitory concentration (IC50) on PEG-3 [1] is 12.3 µM; with PEG-3 [2] (setting [3]), 17.9 µM; in the assay on PEG-3 [2] (setting [4]), 6.75 µM.
On to `Cc1ccccc1CN1Cc2cnnn2-c2ccccc2C1C#N` (stereo unspecified), for which the IC50 at PEG-3 [1] is 13.9 µM; with PEG-3 [2] (setting [3]), 15.6 µM; in the assay with PEG-3 [2] (setting [4]), 12.1 µM.
For `CC(NNC(=S)N1CCN(c2ccccn2)CC1)c1nccc2ccccc12` (stereo unspecified), on PEG-3 [1], the IC50 result is “inactive”. Besides, the IC50 in the assay with PEG-3 [2] (setting [3]) came out at 15.2 µM; in the assay with PEG-3 [2] (setting [4]), 36 µM.
On the same counts, the results for `COc1cc(NC(=O)c2c(F)c(F)c(F)c(F)c2F)c(OC)cc1Cl` are 19.8 µM, 23.7 µM and 15.9 µM.
The corresponding values for `CN1CCC(N(C)S(=O)(=O)c2ccc(NC(=O)COc3ccc(Br)cc3Cl)cc2)CC1` are 18.7 µM, 23 µM and 14.5 µM.
With `CSc1ccc2c(c1)C(N1CCN(C)CC1)Cc1ccccc1S2` (stereo unspecified), the figures for the IC50 on PEG-3 [1], in the assay on PEG-3 [2] (setting [3]) and with PEG-3 [2] (setting [4]) were 11.6 µM, 16.9 µM and 6.17 µM, respectively.
The corresponding values for `Cc1cc2c(c(/C=C/C(=O)c3ccccc3)c1)OC1(C=C2)Oc2ccccc2C(=O)N1C` (stereo unspecified) are 18 µM, 20.4 µM and 15.5 µM.
Turning to `c1ccc(C(=NNc2nc3ccccc3s2)c2ccccn2)cc1`, the IC50 at PEG-3 [1] was 16 µM; with PEG-3 [2] (setting [3]) it was 6.63 µM; with PEG-3 [2] (setting [4]), 25.3 µM.
The corresponding values for `Cc1ccc(Cn2c(=N)n(CC(=O)c3ccccc3)c3ccccc32)cc1` are 16.5 µM, 15.4 µM and 17.6 µM.
As to `CCCOc1ccc(NC(=O)CC2C(=O)N(CC)C(=S)N2CCCN2CCN(Cc3ccccc3)CC2)cc1` (stereo unspecified), the half-inhibitory concentration (IC50) is 18.9 µM on PEG-3 [1], 20.6 µM in the assay with PEG-3 [2] (setting [3]) and 17.2 µM with PEG-3 [2] (setting [4]).
Take `N=c1n(CCN2CCCC2)c2ccccc2n1CC(O)c1ccc(Cl)c(Cl)c1` (stereo unspecified): the IC50 on PEG-3 [1] is 13.4 µM; in the assay with PEG-3 [2] (setting [3]) it was 17.7 µM; with PEG-3 [2] (setting [4]), 9.03 µM.
In the case of `COc1ccc(C[C@H]2CN3C(=NC[C@@H]3Cc3ccc(O)cc3)N2C[C@H](C)NC(=O)c2ccc(C)c(Br)c2)cc1`, at PEG-3 [1], the IC50 entry was “inactive”. The IC50 came out at 22.7 µM in the assay with PEG-3 [2] (setting [3]) and 20.8 µM in the assay on PEG-3 [2] (setting [4]).
On the same counts, the results for `CC(=O)Nc1cccc(-c2ccnc3c2CC(C)(C(=O)Nc2cccc(C(F)(F)F)c2)O3)c1` (stereo unspecified) are “inactive”, 5.21 µM and over 100 µM.
The corresponding values for `CCOC(=O)c1sc2nc(CSc3ccccc3)nc(N3CCCN(C)CC3)c2c1C` are 19.4 µM, 19.4 µM and 19.4 µM.
The corresponding values for `O=c1c2ccccc2oc2cc(C#CC3(O)CCCCC3)ccc12` are “inactive”, 27.8 µM and over 100 µM.
With `Cc1ccc(NS(=O)(=O)c2cc3c4c(cccc4c2)C(=O)NC3=O)cc1C`, the IC50 entry at PEG-3 [1] is “inactive”. Also, the results for the half-inhibitory concentration (IC50) in the assay on PEG-3 [2] (setting [3]) and with PEG-3 [2] (setting [4]) were 5.99 µM and over 100 µM, respectively.
Take `COc1cc(/C=C/c2ccc3cccc(O)c3n2)ccc1O`: the IC50 at PEG-3 [1] is > 100 µM (inactive); in the assay on PEG-3 [2] (setting [3]), over 100 µM; in the assay on PEG-3 [2] (setting [4]) it was over 100 µM.
In the case of `Cc1ccc(CC2(OCCN(C)C)CCC(C(C)(C)C)CC2)cc1` (stereo unspecified), the half-maximal inhibitory concentration (IC50) is 16.8 µM on PEG-3 [1], 19.1 µM in the assay with PEG-3 [2] (setting [3]) and 14.6 µM with PEG-3 [2] (setting [4]).
Regarding `COc1ccc(CN2CCN(C(=O)c3cc(-c4cccnc4)nc4ccc(Cl)cc34)CC2)c(OC)c1OC`, the IC50 result at PEG-3 [1] was “inactive”. Besides, the IC50 in the assay with PEG-3 [2] (setting [3]) was 52.4 µM; in the assay with PEG-3 [2] (setting [4]), 16.4 µM.
On the same counts, the results for `CCN(CC)CCCCNc1ncc2cc(-c3cc(OC)cc(OC)c3)c(NC(=O)NC(C)(C)C)nc2n1` are “inactive”, 21 µM and 20.9 µM.
On the same counts, the results for `CC1CCCCN1S(=O)(=O)c1ccc(C(=O)N(CCCN(C)C)c2nc3ccc(Br)cc3s2)cc1` (stereo unspecified) are 15 µM, 19.1 µM and 10.9 µM.
For the compound `COC(=O)c1cn(NC(=O)c2cc([N+](=O)[O-])ccc2F)c(=O)c2ccccc12`, the IC50 result on PEG-3 [1] was “inactive”. Further, the IC50 with PEG-3 [2] (setting [3]) is 26.1 µM; with PEG-3 [2] (setting [4]) it was 46.5 µM.
The corresponding values for `COc1ccc(C2NCCc3c2[nH]c2ccccc32)cc1COc1ccc(F)cc1` (stereo unspecified) are 12.3 µM, 16.9 µM and 7.75 µM.
Turning to `O=S(=O)(c1cccc(F)c1)N1CCN(c2nc(-c3cccnc3)nc3ccccc23)CC1`, the concentration for half-maximal inhibition (IC50) is 12.9 µM at PEG-3 [1], 10.1 µM in the assay on PEG-3 [2] (setting [3]) and 15.8 µM in the assay on PEG-3 [2] (setting [4]).
With `CCN(CC)CCNC(=O)c1ccc(NC(=O)c2cccc(S(=O)(=O)N(C)C3CCCCC3)c2)cc1`, the IC50 entry on PEG-3 [1] was “inactive”. Also, the IC50 came out at 29.1 µM in the assay on PEG-3 [2] (setting [3]) and 25.6 µM in the assay on PEG-3 [2] (setting [4]).
The corresponding values for `CCn1cc(CN2CCC(C(=O)Nc3cccc(-c4cccc(Cl)c4)c3)CC2)cn1` are 16.8 µM, 19.3 µM and 14.4 µM.
`CCN(CC)CCOc1ccc(/C(=C(/Cl)c2ccccc2)c2ccccc2)cc1`: the IC50 at PEG-3 [1] is 17 µM; with PEG-3 [2] (setting [3]), 22.4 µM; with PEG-3 [2] (setting [4]), 11.6 µM.
The corresponding values for `Cn1cc(CN2CCCC(C(=O)Nc3ccc(-c4cccc(F)c4)cc3)C2)cn1` (stereo unspecified) are “inactive”, 19.6 µM and 29.8 µM.
`COc1ccc(CCn2c(=N)c(C(=O)NC3CCCC3)cc3c(=O)n4cccc(C)c4nc32)cc1`: the IC50 entry on PEG-3 [1] is “inactive”. Moreover, the IC50 with PEG-3 [2] (setting [3]) amounted to 15.8 µM; in the assay with PEG-3 [2] (setting [4]), 42.7 µM.
On the same counts, the results for `CN(C)CC1CCC/C(=C/c2ccc(Cl)cc2)C1=O` (stereo unspecified) are 11.1 µM, 14.5 µM and 7.74 µM.
The corresponding values for `O=C(C[n+]1ccc(-c2cc(C(=O)Nc3cccc(C(F)(F)F)c3)c3ccccc3n2)cc1)c1cccc([N+](=O)[O-])c1` are 18.6 µM, 23.4 µM and 13.8 µM.
The corresponding values for `C[C@@]12C(=O)Nc3cc(Cl)ccc3C(=O)N1[C@H]1c3cc(Cl)ccc3OC[C@@H]1[C@@H]2c1ccccc1` are 11.5 µM, 16.3 µM and 6.77 µM.
Turning to `COc1ccc2sc(N(CCCN(C)C)C(=O)c3ccc(S(=O)(=O)N4CCCc5ccccc54)cc3)nc2c1`, the IC50 result on PEG-3 [1] was “inactive”. Further, the IC50 in the assay on PEG-3 [2] (setting [3]) stood at 20.7 µM; in the assay with PEG-3 [2] (setting [4]), 21.8 µM.
In the case of `CCOC(=O)c1c(NC(C)=O)sc2c(OCC(O)CNC(C)(C)C)c(Br)ccc12` (stereo unspecified), the concentration for half-maximal inhibition (IC50) was 13.6 µM at PEG-3 [1], 18 µM in the assay on PEG-3 [2] (setting [3]) and 9.14 µM in the assay on PEG-3 [2] (setting [4]).
The corresponding values for `Oc1[nH]c2ccc(Br)cc2c1N=NC(=S)Nc1ccc(F)cc1` are 19.3 µM, 10.5 µM and 28.1 µM.
On the same counts, the results for `CN1CCN(c2ccc(NC(=O)N3CCc4ccccc43)cc2)CC1` are “inactive”, 15 µM and 38.8 µM.
On the same counts, the results for `CN(C)CCNc1ncnc2c1sc1nc(N3CCOCC3)c3c(c12)CC(C)(C)SC3` are 14.4 µM, 18.1 µM and 10.6 µM.
Consider `Cc1cccc(-n2ncc3c(N(C)C4CCCCC4)ncnc32)c1`, for which the IC50 entry on PEG-3 [1] is “inactive”. In addition, the figures for the IC50 with PEG-3 [2] (setting [3]) and in the assay with PEG-3 [2] (setting [4]) were 22.6 µM and 26.7 µM, respectively.
